Target: T1, GLUT1 (Homo sapiens, UniProt P11166)
T1 sequence (P11166 1-492): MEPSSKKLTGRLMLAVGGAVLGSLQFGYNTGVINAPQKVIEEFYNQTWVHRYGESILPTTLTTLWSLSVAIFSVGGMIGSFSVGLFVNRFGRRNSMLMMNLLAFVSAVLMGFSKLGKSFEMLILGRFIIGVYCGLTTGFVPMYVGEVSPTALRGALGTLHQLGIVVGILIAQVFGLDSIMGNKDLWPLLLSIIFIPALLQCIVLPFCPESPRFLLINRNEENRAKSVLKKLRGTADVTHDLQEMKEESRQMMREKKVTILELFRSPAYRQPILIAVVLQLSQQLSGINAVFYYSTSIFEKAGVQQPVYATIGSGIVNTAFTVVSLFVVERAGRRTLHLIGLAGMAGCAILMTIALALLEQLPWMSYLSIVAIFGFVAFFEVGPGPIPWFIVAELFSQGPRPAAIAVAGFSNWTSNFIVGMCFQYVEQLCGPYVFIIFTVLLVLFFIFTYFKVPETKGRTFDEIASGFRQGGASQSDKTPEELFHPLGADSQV
Test: Indirect measurement of GLUT1 activity by quantification of intracellular ATP levels (glucose induced ATP increase)
Assay type: cell-based
Design: endogenous in cells; host or cells: DLD1 or CHO-K1
Details: read-out: IC50 regarding glucose induced ATP increase (GLUT1 inhibition)
Outline: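 Intracellular ATP was measured by CellTiter-Glo luminescence as an indirect readout of transport: glucose-driven for GLUT1, fructose-driven for GLUT2. DLD1 or CHO-K1 cells were used alongside an oxidative phosphorylation inhibitor. Beforehand, cells were held overnight in glucose-free 1% FCS medium to deplete ATP.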

Compound	IC50 [nM]
Cc1nn(Cc2ccc(F)cc2)c(C)c1NC(=O)c1ccnc2ccc(Br)cc12 [Example 184, 6-bromo-N-[1-(4-fluorobenzyl)-3,5-dimethyl-1H-pyrazol-4-yl]quinoline-4-carboxamide]	110
Cc1cc(C(=O)Nc2c(C)nn(Cc3ccc(F)c(F)c3)c2C)c2cc(Br)ccc2n1 [Example 185, 6-bromo-N-[1-(3,4-difluorobenzyl)-3,5-dimethyl-1H-pyrazol-4-yl]-2-methylquinoline-4-carboxamide]	122
Cc1ccc2nc(C)cc(C(=O)Nc3c(C)nn(Cc4ccc(F)c(Cl)c4)c3C)c2c1 [Example 186, N-[1-(3-chloro-4-fluorobenzyl)-3,5-dimethyl-1H-pyrazol-4-yl]-2,6-dimethylquinoline-4-carboxamide]	126
Cc1nn(Cc2ccn(C)n2)c(C)c1NC(=O)c1cc(C(F)(F)F)nc2ccc(Br)cc12 [Example 187, 6-bromo-N-{3,5-dimethyl-1-[(1-methyl-1H-pyrazol-3-yl)methyl]-1H-pyrazol-4-yl}-2-(trifluoromethyl)quinoline-4-carboxamide]	131
Cc1nn(Cc2ccc(F)c(F)c2)c(C)c1NC(=O)c1cc(C(F)(F)F)nc2cc(Br)ccc12 [Example 189, 7-bromo-N-[1-(3,4-difluorobenzyl)-3,5-dimethyl-1H-pyrazol-4-yl]-2-(trifluoromethyl)quinoline-4-carboxamide]	165
COc1ccc2nccc(C(=O)Nc3c(C)nn(Cc4ccc(F)cc4)c3C)c2c1 [Example 192, N-[1-(4-fluorobenzyl)-3,5-dimethyl-1H-pyrazol-4-yl]-6-methoxyquinoline-4-carboxamide]	177
COCCN(C(=O)c1cc(C(F)(F)F)nc2ccc(Br)cc12)c1c(C)nn(Cc2ccc(F)cc2)c1C [Example 194, 6-bromo-N-[1-(4-fluorobenzyl)-3,5-dimethyl-1H-pyrazol-4-yl]-N-(2-methoxyethyl)-2-(trifluoromethyl)quinoline-4-carboxamide]	229
Cc1nn(CC2CCCCC2)c(C)c1NC(=O)c1cc(C(F)(F)F)nc2cc(F)c(F)cc12 [Example 195, N-[1-(cyclohexylmethyl)-3,5-dimethyl-1H-pyrazol-4-yl]-6,7-difluoro-2-(trifluoromethyl)quinoline-4-carboxamide]	272
Cc1nn(Cc2cccnc2)c(C)c1NC(=O)c1cc(C(F)(F)F)nc2cc(F)c(F)cc12 [Example 196, N-[3,5-dimethyl-1-(pyridin-3-ylmethyl)-1H-pyrazol-4-yl]-6,7-difluoro-2-(trifluoromethyl)quinoline-4-carboxamide]	286
Cc1nn(Cc2ccc(F)cc2)c(C)c1NC(=O)c1cc(N2CCOCC2)nc2ccccc12 [Example 198, N-[1-(4-fluorobenzyl)-3,5-dimethyl-1H-pyrazol-4-yl]-2-(morpholin-4-yl)quinoline-4-carboxamide]	438
Cc1c(NC(=O)c2cc(C(F)(F)F)nc3c(Cl)cc(Cl)cc23)c(C(F)(F)F)nn1Cc1ccc(F)c(F)c1 [Example 199, 6,8-dichloro-N-[1-(3,4-difluorobenzyl)-5-methyl-3-(trifluoromethyl)-1H-pyrazol-4-yl]-2-(trifluoromethyl)quinoline-4-carboxamide]	441
Cc1nn(Cc2ccc(F)cc2)c(C)c1N(Cc1ccccc1)C(=O)c1cc(C(F)(F)F)nc2ccc(Br)cc12 [Example 200]	539
Cc1ccc2nc(C)cc(C(=O)Nc3c(C)nn(Cc4ccc(C#N)nc4)c3C)c2c1 [Example 201, N-{1-[(6-cyanopyridin-3-yl)methyl]-3,5-dimethyl-1H-pyrazol-4-yl}-2,6-dimethylquinoline-4-carboxamide]	557
Cc1ccc2nc(C)cc(C(=O)Nc3c(C)nn(Cc4ccc(C(=O)NCCO)cc4)c3C)c2c1 [Example 202, N-(1-{4-[(2-hydroxyethyl)carbamoyl]benzyl}-3,5-dimethyl-1H-pyrazol-4-yl)-2,6-dimethylquinoline-4-carboxamide]	562
Cc1c(NC(=O)c2cc(C(F)(F)F)nc3c(Cl)cc(Cl)cc23)c(C(F)(F)F)nn1Cc1ccc(F)cc1F [Example 205, 6,8-dichloro-N-[1-(2,4-difluorobenzyl)-5-methyl-3-(trifluoromethyl)-1H-pyrazol-4-yl]-2-(trifluoromethyl)quinoline-4-carboxamide]	613
Cc1ccc2nc(C)cc(C(=O)Nc3c(C)nn(CC4CCCCC4)c3C)c2c1 [Example 206, N-[1-(cyclohexylmethyl)-3,5-dimethyl-1H-pyrazol-4-yl]-2,6-dimethylquinoline-4-carboxamide]	667
Cc1ccc2nc(C)cc(C(=O)Nc3c(C)nn(Cc4cccnc4)c3C)c2c1 [Example 208, N-[3,5-dimethyl-1-(pyridin-3-ylmethyl)-1H-pyrazol-4-yl]-2,6-dimethylquinoline-4-carboxamide]	741
Cc1nn(Cc2ccc(F)cc2)c(C)c1NC(=O)c1cc(C(=O)N(C)C)nc2ccccc12 [Example 209, N^4-[1-(4-fluorobenzyl)-3,5-dimethyl-1H-pyrazol-4-yl]-N^2,N^2-dimethylquinoline-2,4-dicarboxamide]	817
Cc1c(NC(=O)c2cc(C(F)(F)F)nc3cc(F)c(F)cc23)c(C(F)(F)F)nn1Cc1ccc(F)cc1F [Example 210, N-[1-(2,4-difluorobenzyl)-5-methyl-3-(trifluoromethyl)-1H-pyrazol-4-yl]-6,7-difluoro-2-(trifluoromethyl)quinoline-4-carboxamide]	849
Cc1nn(Cc2ccc(F)cc2)c(C)c1NC(=O)c1ccnc2ccccc12 [Example 211, N-[1-(4-fluorobenzyl)-3,5-dimethyl-1H-pyrazol-4-yl]quinoline-4-carboxamide]	957

Now from value to compound:

IC50 [nM]	Compound
107	Cc1nn(Cc2ccc(C#N)nc2)c(C)c1NC(=O)c1cc(C(F)(F)F)nc2cc(F)c(F)cc12 [Example 183, N-{1-[(6-cyanopyridin-3-yl)methyl]-3,5-dimethyl-1H-pyrazol-4-yl}-6,7-difluoro-2-(trifluoromethyl)quinoline-4-carboxamide]
161	Cc1ccc2nc(C)cc(C(=O)Nc3c(C(F)(F)F)nn(Cc4ccc(C#N)cc4)c3C)c2c1 [Example 188, N-[1-(4-cyanobenzyl)-5-methyl-3-(trifluoromethyl)-1H-pyrazol-4-yl]-2,6-dimethylquinoline-4-carboxamide]
171	Cc1nn(Cc2ccc(F)c(Cl)c2)c(C)c1NC(=O)c1cc(C(F)(F)F)nc2ccc(Br)cc12 [Example 190, 6-bromo-N-[1-(3-chloro-4-fluorobenzyl)-3,5-dimethyl-1H-pyrazol-4-yl]-2-(trifluoromethyl)quinoline-4-carboxamide]
171	Cc1nn(Cc2ccc(F)c(Cl)c2)c(C)c1NC(=O)c1cc(C(F)(F)F)nc2cc(F)c(F)cc12 [Example 191, N-[1-(3-chloro-4-fluorobenzyl)-3,5-dimethyl-1H-pyrazol-4-yl]-6,7-difluoro-2-(trifluoromethyl)quinoline-4-carboxamide]
215	Cc1c(NC(=O)c2cc(C(F)(F)F)nc3cc(F)c(F)cc23)c(C(F)(F)F)nn1Cc1ccc(F)cc1 [Example 193, 6,7-difluoro-N-[1-(4-fluorobenzyl)-5-methyl-3-(trifluoromethyl)-1H-pyrazol-4-yl]-2-(trifluoromethyl)quinoline-4-carboxamide]
333	Cc1c(NC(=O)c2cc(C(F)(F)F)nc3ccc(Br)cc23)c(C(F)(F)F)nn1Cc1ccc(F)c(F)c1 [Example 197, 6-bromo-N-[1-(3,4-difluorobenzyl)-5-methyl-3-(trifluoromethyl)-1H-pyrazol-4-yl]-2-(trifluoromethyl)quinoline-4-carboxamide]
602	Cc1ccc2nc(C)cc(C(=O)Nc3c(C(F)(F)F)nn(Cc4ccc(F)c(F)c4)c3C)c2c1 [Example 203, N-[1-(3,4-difluorobenzyl)-5-methyl-3-(trifluoromethyl)-1H-pyrazol-4-yl]-2,6-dimethylquinoline-4-carboxamide]
613	Cc1ccc2nc(C)cc(C(=O)Nc3c(C(F)(F)F)nn(Cc4ccc(F)cc4F)c3C)c2c1 [Example 204, N-[1-(2,4-difluorobenzyl)-5-methyl-3-(trifluoromethyl)-1H-pyrazol-4-yl]-2,6-dimethylquinoline-4-carboxamide]
688	Cc1c(NC(=O)c2cc(C(F)(F)F)nc3cc(F)c(F)cc23)c(C(F)(F)F)nn1Cc1ccc(F)c(F)c1 [Example 207, N-[1-(3,4-difluorobenzyl)-5-methyl-3-(trifluoromethyl)-1H-pyrazol-4-yl]-6,7-difluoro-2-(trifluoromethyl)quinoline-4-carboxamide]
0.6	Cc1nn(Cc2ccc(C#N)cc2)c(C)c1NC(=O)c1cc(C(N)=O)nc2cc(F)c(Cl)cc12 [Example 212, 6-chloro-N^4-[1-(4-cyanobenzyl)-3,5-dimethyl-1H-pyrazol-4-yl]-7-fluoroquinoline-2,4-dicarboxamide]
0.7	Cc1c(NC(=O)c2cc(C(N)=O)nc3cc(F)c(Cl)cc23)c(C(F)(F)F)nn1Cc1ccc(C#N)cc1 [Example 213, 6-chloro-N^4-[1-(4-cyanobenzyl)-5-methyl-3-(trifluoromethyl)-1H-pyrazol-4-yl]-7-fluoroquinoline-2,4-dicarboxamide]

Reference: US20170037028A1 (BAYER PHARMA AKTIENGESELLSCHAFT, priority 2013, published 2017)
